Test results taken from patent US11472842B2 (Protagonist Therapeutics, Inc., priority 2015, dated 2022).
Starred links: 1 amine or outer side, 2 acyl side, 3 side chain; linkers in the order of their positions; H or OH if unused. Positions of bridges follow the written chain, without caps; N, C: chain ends. Residues, ends and D or L forms follow the SMILES beside them. Groups on a side chain read outwards from the residue. *: point of attachment. γGlu = O=C(O)[C@H](CCC(=O)[*:2])N[*:1]; Palmitoyl = CCCCCCCCCCCCCCCC(=O)*; Isovaleryl = CC(C)CC(=O)*

Biological target: T1, human ferroportin (Homo sapiens, UniProt Q9NP59)
T1 construct: expressed in transfected cells
T1 sequence (Q9NP59 1-571): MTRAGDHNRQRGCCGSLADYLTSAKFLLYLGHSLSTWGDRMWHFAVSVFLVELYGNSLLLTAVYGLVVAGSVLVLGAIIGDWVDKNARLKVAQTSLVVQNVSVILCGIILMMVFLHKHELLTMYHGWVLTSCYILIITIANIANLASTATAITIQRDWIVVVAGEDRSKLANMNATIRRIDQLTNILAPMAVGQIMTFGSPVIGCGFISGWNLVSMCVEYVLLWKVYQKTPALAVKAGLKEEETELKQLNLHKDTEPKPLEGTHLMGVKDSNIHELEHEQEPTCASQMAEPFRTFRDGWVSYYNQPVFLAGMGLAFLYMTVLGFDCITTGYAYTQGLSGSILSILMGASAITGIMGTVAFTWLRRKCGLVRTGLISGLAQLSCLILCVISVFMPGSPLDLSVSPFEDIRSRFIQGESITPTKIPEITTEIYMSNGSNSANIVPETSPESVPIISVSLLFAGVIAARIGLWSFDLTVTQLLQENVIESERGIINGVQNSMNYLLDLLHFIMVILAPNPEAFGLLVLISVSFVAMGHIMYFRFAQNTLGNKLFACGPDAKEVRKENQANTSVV
Assay: Ferroportin internalization / degradation, HEK-GFP cell based assay (HEK293 cells stably expressing ferroportin-GFP, decrease in GFP fluorescence)
Conditions: Table 3 monomer analogues; ferroportin-GFP HEK293 cells, 18-24 h incubation; read-out: HEK-GFP cell based assay (potency EC50)
Method: Peptide analogues were tested in vitro for induction of internalization of the human ferroportin protein. Following internalization, the […] are degraded. The assay measures a decrease in fluorescence of the receptor.
The cDNA encoding the human ferroportin (SLC40A1) was cloned from a cDNA clone from Origene (NM_014585). The DNA encoding the ferroportin was amplified by PCR using primers also encoding terminal restriction sites for subcloning, but without the termination codon. The ferroportin receptor was subcloned into a mammalian GFP expression vector containing a neomycin (G418) resistance marker in such that the reading frame of the ferroportin was fused in frame with the GFP protein. The fidelity of the DNA encoding the protein was confirmed by DNA sequencing. HEK293 cells were used for transfection of the ferroportin-GFP receptor expression plasmid. The cells were grown according to standard protocol in growth medium and transfected with the plasmids using Lipofectamine (manufacturer's protocol, Invitrogen). […] The cells were propagated and frozen in aliquots.
Compound was added to desired final concentration for at least 18 hours in the incubator. […] Compound was added to desired final concentration for at least 18 hours but no more than 24 hours in the incubator.
The EC50 of these reference compounds for ferroportin degradation was determined according to the activity assay described above. These peptides served as control standards.
These values were determined as described herein.

Q: CCCCCCCCCCCCCCCC(=O)N[C@@H](CCC(=O)NCCCC[C@@H]1NC(=O)[C@H](Cc2ccccc2)NC(=O)[C@H](CCCCN)NC(=O)[C@H]([C@@H](C)CC)NC(=O)[C@@H](NC(=O)[C@@H]2CCCN2C(=O)[C@H](Cc2ccccc2)NC(=O)[C@H](Cc2c[nH]cn2)NC(=O)[C@@H](NC(=O)[C@H](CC(=O)O)NC(=O)CC(C)C)[C@@H](C)O)C(C)(C)SSC(C)(C)[C@@H](C(=O)N[C@@H](CCCCN)C(N)=O)NC(=O)CNC(=O)[C@H](CCCCN)NC(=O)[C@H](CO)NC(=O)[C@H](CCCNC(=N)N)NC(=O)[C@@H]2CCCN2C1=O)C(=O)O [Compound 3, Isovaleric acid-DTHFP-[Pen]-IKF-[Lys(IsoGlu-Palm)]-PRSKG-[Pen]-K-NH2] was tested. Which DC50 did it give?
A: 418 nM

Q: How did the DC50 turn out when CCCCCCCCCCCCCCCC(=O)N[C@@H](CCC(=O)NCCCC[C@@H]1NC(=O)[C@H](Cc2ccccc2)NC(=O)[C@H](CCCCN)NC(=O)[C@H]([C@@H](C)CC)NC(=O)[C@@H](NC(=O)[C@@H]2CCCN2C(=O)[C@H](Cc2ccccc2)NC(=O)[C@H](Cc2c[nH]cn2)NC(=O)[C@@H](NC(=O)[C@H](CC(=O)O)NC(=O)CC(C)C)[C@@H](C)O)C(C)(C)SSC[C@@H](C(=O)N[C@@H](CCCCN)C(N)=O)NC(=O)CNC(=O)[C@H](CCCCN)NC(=O)[C@H](CO)NC(=O)[C@H](CCCNC(=N)N)NC(=O)[C@@H]2CCCN2C1=O)C(=O)O [Compound 4, Isovaleric acid-DTHFP-[Pen]-IKF-[Lys(IsoGlu-Palm)]-PRSKGCK-NH2] was run?
A: 68 nM

Q: How did the DC50 turn out when CCCCCCCCCCCCCCCC(=O)N[C@@H](CCC(=O)NCCCC[C@@H]1NC(=O)[C@H](Cc2ccccc2)NC(=O)[C@H](CCCCN)NC(=O)[C@H]([C@@H](C)CC)NC(=O)[C@@H](NC(=O)[C@@H]2CCCN2C(=O)[C@H](Cc2ccccc2)NC(=O)[C@H](Cc2c[nH]cn2)NC(=O)[C@@H](NC(=O)[C@H](CC(=O)O)NC(=O)CC(C)C)[C@@H](C)O)CSSC(C)(C)[C@@H](C(=O)N[C@@H](CCCCN)C(N)=O)NC(=O)CNC(=O)[C@H](CCCCN)NC(=O)[C@H](CO)NC(=O)[C@H](CCCNC(=N)N)NC(=O)[C@@H]2CCCN2C1=O)C(=O)O [Compound 5] was run?
A: 13 nM

Q: Which DC50 does the source give for CCCCCCCCCCCCCCCC(=O)N[C@@H](CCC(=O)NCCCC[C@@H]1NC(=O)[C@H](Cc2ccccc2)NC(=O)[C@H](CCCCN)NC(=O)[C@H]([C@@H](C)CC)NC(=O)[C@@H](NC(=O)[C@@H]2CCCN2C(=O)[C@H](Cc2ccccc2)NC(=O)[C@H](Cc2c[nH]cn2)NC(=O)[C@@H](NC(=O)[C@H](CC(=O)O)NC(=O)CC(C)C)[C@@H](C)O)CSSC[C@@H](C(=O)N[C@@H](CCCCN)C(N)=O)NC(=O)CN(C)C(=O)[C@H](CCCCN)NC(=O)[C@H](CO)NC(=O)[C@H](CCCNC(=N)N)NC(=O)[C@@H]2CCCN2C1=O)C(=O)O [Compound 6] here?
A: 11 nM

Q: How did the DC50 turn out when CCCCCCCCCCCCCCCC(=O)N[C@@H](CCC(=O)NCCCC[C@@H]1NC(=O)[C@H](Cc2ccccc2)NC(=O)[C@H](CCCCN)NC(=O)[C@H]([C@@H](C)CC)NC(=O)[C@@H](NC(=O)[C@@H]2CCCN2C(=O)[C@@H](NC(=O)[C@H](Cc2c[nH]cn2)NC(=O)[C@@H](NC(=O)[C@H](CC(=O)O)NC(=O)CC(C)C)[C@@H](C)O)C(c2ccccc2)c2ccccc2)CSSC[C@@H](C(=O)N[C@@H](CCCCN)C(N)=O)NC(=O)CNC(=O)[C@H](CCCCN)NC(=O)[C@H](CO)NC(=O)[C@H](CCCNC(=N)N)NC(=O)[C@@H]2CCCN2C1=O)C(=O)O [Compound 7, Isovaleric acid-DTH-[Dpa]-PCIKF-[Lys(IsoGlu-Palm)]-PRSKGCK-NH2] was run?
A: 12 nM

Q: For CCCCCCCCCCCCCCCC(=O)N[C@@H](CCC(=O)NCCCC[C@@H]1NC(=O)[C@H](Cc2ccccc2)NC(=O)[C@H](CCCCN)NC(=O)[C@H]([C@@H](C)CC)NC(=O)[C@@H](NC(=O)[C@@H]2CCCN2C(=O)[C@@H](NC(=O)[C@H](Cc2c[nH]cn2)NC(=O)[C@@H](NC(=O)[C@H](CC(=O)O)NC(=O)CC(C)C)[C@@H](C)O)C(c2ccccc2)c2ccccc2)CSSC[C@@H](C(=O)N[C@@H](CCCCN)C(N)=O)NC(=O)CN(C)C(=O)[C@H](CCCCN)NC(=O)[C@H](CO)NC(=O)[C@H](CCCNC(=N)N)NC(=O)[C@@H]2CCCN2C1=O)C(=O)O [Compound 8, Isovaleric acid-DTH-[Dpa]-PCIKF-[Lys(IsoGlu-Palm)]-PRSK-[Sar]-CK-NH2], which DC50 is on record?
A: 15 nM

Q: For CCCCCCCCCCCCCCCC(=O)N[C@@H](CCC(=O)NCCCC[C@@H]1NC(=O)[C@H](Cc2ccccc2)NC(=O)[C@H](CCCCN)NC(=O)[C@H]([C@@H](C)CC)NC(=O)[C@@H](NC(=O)[C@@H]2CCCN2C(=O)[C@H](Cc2ccccc2)NC(=O)[C@H](Cc2c[nH]cn2)NC(=O)[C@@H](NC(=O)[C@H](CC(=O)O)NC(=O)CC(C)C)[C@@H](C)O)CSSC[C@@H](C(N)=O)NC(=O)CNC(=O)[C@H](CCCCN)NC(=O)[C@H](CO)NC(=O)[C@H](CCCNC(=N)N)NC(=O)[C@@H]2CCCN2C1=O)C(=O)O [Compound 9], which DC50 is on record?
A: 11 nM

Q: CCCCCCCCCCCCCCCC(=O)N[C@@H](CCC(=O)NCCCC[C@@H]1NC(=O)[C@H](Cc2ccccc2)NC(=O)[C@H](CCCCN)NC(=O)[C@H]([C@@H](C)CC)NC(=O)[C@@H](NC(=O)[C@@H]2CCCN2C(=O)[C@H](Cc2ccccc2)NC(=O)[C@H](Cc2c[nH]cn2)NC(=O)[C@@H](NC(=O)[C@H](CC(=O)O)NC(=O)CC(C)C)[C@@H](C)O)CSSC[C@@H](C(N)=O)NC(=O)CN(C)C(=O)[C@H](CCCCN)NC(=O)[C@H](CO)NC(=O)[C@H](CCCNC(=N)N)NC(=O)[C@@H]2CCCN2C1=O)C(=O)O [Compound 10] was tested. Which DC50 did it give?
A: 10 nM

Q: CCCCCCCCCCCCCCCC(=O)N[C@@H](CCC(=O)NCCCC[C@@H]1NC(=O)[C@H](Cc2ccccc2)NC(=O)[C@H](CCCCN)NC(=O)[C@H](CCCCN)NC(=O)[C@@H](NC(=O)[C@@H]2CCCN2C(=O)[C@H](Cc2ccccc2)NC(=O)[C@H](Cc2c[nH]cn2)NC(=O)[C@@H](NC(=O)[C@H](CC(=O)O)NC(=O)CC(C)C)[C@@H](C)O)CSSC[C@@H](C(=O)N[C@@H](CCCCN)C(N)=O)NC(=O)CNC(=O)[C@H](CCCCN)NC(=O)[C@H](CO)NC(=O)[C@H](CCCNC(=N)N)NC(=O)[C@@H]2CCCN2C1=O)C(=O)O [Compound 11] (Isovaleryl-DTHFPCKKFK([γGlu-Palmitoyl])PRSKGCK-NH2; disulfide 6-16) was tested. Which DC50 did it give?
A: 22 nM

Q: For CCCCCCCCCCCC(=O)N[C@@H](CCC(=O)NCCCC[C@@H]1NC(=O)[C@H](Cc2ccccc2)NC(=O)[C@H](CCCCN)NC(=O)[C@H]([C@@H](C)CC)NC(=O)[C@@H](NC(=O)[C@@H]2CCCN2C(=O)[C@H](Cc2ccccc2)NC(=O)[C@H](Cc2c[nH]cn2)NC(=O)[C@@H](NC(=O)[C@H](CC(=O)O)NC(=O)CC(C)C)[C@@H](C)O)CSSC[C@@H](C(=O)N[C@@H](CCCCN)C(N)=O)NC(=O)CNC(=O)[C@H](CCCCN)NC(=O)[C@H](CO)NC(=O)[C@H](CCCNC(=N)N)NC(=O)[C@@H]2CCCN2C1=O)C(=O)O [Compound 12], which DC50 is on record?
A: 14 nM

Q: CCCCCCCCCCCCCC(=O)N[C@@H](CCC(=O)NCCCC[C@@H]1NC(=O)[C@H](Cc2ccccc2)NC(=O)[C@H](CCCCN)NC(=O)[C@H]([C@@H](C)CC)NC(=O)[C@@H](NC(=O)[C@@H]2CCCN2C(=O)[C@H](Cc2ccccc2)NC(=O)[C@H](Cc2c[nH]cn2)NC(=O)[C@@H](NC(=O)[C@H](CC(=O)O)NC(=O)CC(C)C)[C@@H](C)O)CSSC[C@@H](C(=O)N[C@@H](CCCCN)C(N)=O)NC(=O)CNC(=O)[C@H](CCCCN)NC(=O)[C@H](CO)NC(=O)[C@H](CCCNC(=N)N)NC(=O)[C@@H]2CCCN2C1=O)C(=O)O [Compound 13] was tested. Which DC50 did it give?
A: 10 nM

Q: Which DC50 does the source give for CC[C@H](C)[C@@H]1NC(=O)[C@@H](NC(=O)[C@@H]2CCCN2C(=O)[C@H](Cc2ccccc2)NC(=O)[C@H](Cc2c[nH]cn2)NC(=O)[C@@H](NC(=O)[C@H](CC(=O)O)NC(=O)CC(C)C)[C@@H](C)O)CSSC[C@@H](C(=O)N[C@@H](CCCCN)C(N)=O)NC(=O)CNC(=O)[C@H](CCCCN)NC(=O)[C@H](CO)NC(=O)[C@H](CCCNC(=N)N)NC(=O)[C@@H]2CCCN2C(=O)[C@H](CCCCNC(=O)CC[C@H](NC(=O)CCCC[C@@H]2SC[C@@H]3NC(=O)N[C@@H]32)C(=O)O)NC(=O)[C@H](Cc2ccccc2)NC(=O)[C@H](CCCCN)NC1=O [Compound 14] here?
A: 29 nM

Q: CC[C@H](C)[C@@H]1NC(=O)[C@@H](NC(=O)[C@@H]2CCCN2C(=O)[C@H](Cc2ccccc2)NC(=O)[C@H](Cc2c[nH]cn2)NC(=O)[C@@H](NC(=O)[C@H](CC(=O)O)NC(=O)CC(C)C)[C@@H](C)O)CSSC[C@@H](C(=O)N[C@@H](CCCCN)C(N)=O)NC(=O)CNC(=O)[C@H](CCCCN)NC(=O)[C@H](CO)NC(=O)[C@H](CCCNC(=N)N)NC(=O)[C@@H]2CCCN2C(=O)[C@H](CCCCNC(=O)CC[C@H](NC(=O)CC(C)C)C(=O)O)NC(=O)[C@H](Cc2ccccc2)NC(=O)[C@H](CCCCN)NC1=O [Compound 15] was tested. Which DC50 did it give?
A: 26 nM
